Experimental data published in ChEMBL document CHEMBL5331131, “Discovery of Acyl-Indole Derivatives as Pan-Serotype Dengue Virus NS4B Inhibitors” (J Med Chem, 2023).
In brackets after ≈: the same amount, converted by molar mass.

System: not listed separately
Assay: AUC last in Sprague-Dawley rat at 10 mg/kg, po measured upto 24 to 48 hrs by LC-MS/MS analysis
Assay type: ADME, organism-based
Set-up: time upper 48 hrs, dose 10 mg/kg, time lower 24 hrs, route po
Details: in vivo

Row | SMILES | AUC(0-t)
1 | COc1cc(NC(C(=O)c2c[nH]c3cc(OC)c(C)cc23)c2ccc(F)cc2OC)cc(OCCO)c1 (single isomer, unassigned; (+)) | 4660 ng·h/mL
2 | COc1cc(NC(C(=O)c2c[nH]c3c(C)c(Cl)ccc23)c2ccc(F)cc2OC)cc(OCCO)c1 (single isomer, unassigned; (+)) | 7600 ng·h/mL
3 | COc1cc(NC(C(=O)c2c[nH]c3cc(F)ccc23)c2ccc(F)cc2OC)cc(OCCO)c1 (centres undefined) | 1110 ng·h/mL

System: not listed separately
Assay: Volume of distribution at steady state in Sprague-Dawley rat at 2.5 mg/kg, iv measured upto 24 hrs by LC-MS/MS analysis
Assay type: ADME, organism-based
Details: in vivo, read-out: Vdss

Row | SMILES | Vd
4 | COc1cc(NC(C(=O)c2c[nH]c3cc(OC)c(C)cc23)c2ccc(F)cc2OC)cc(OCCO)c1 (single isomer, unassigned; (+)) | 6.5 L/kg
5 | COc1cc(NC(C(=O)c2c[nH]c3c(C)c(Cl)ccc23)c2ccc(F)cc2OC)cc(OCCO)c1 (single isomer, unassigned; (+)) | 6.5 L/kg
6 | COc1cc(NC(C(=O)c2c[nH]c3cc(F)ccc23)c2ccc(F)cc2OC)cc(OCCO)c1 (centres undefined) | 7.6 L/kg

System: dengue virus type 2
Assay: Antiviral activity against DENV-2 16681 expressing eGFP infected in african green monkey Vero cells incubated with cells for 24 hrs followed by viral infection measured after 3 days by laser microscopic analysis
Assay type: functional, organism-based
Details: Dengue virus, 16681, Vero

Row | SMILES | EC50
7 | COc1cc(NC(C(=O)c2c[nH]c3cc(OC)c(C)cc23)c2ccc(F)cc2OC)cc(OCCO)c1 (single isomer, unassigned; (+)) | 3 nM
8 | COc1cc(NC(C(=O)c2c[nH]c3c(C)c(Cl)ccc23)c2ccc(F)cc2OC)cc(OCCO)c1 (single isomer, unassigned; (+)) | 1 nM
9 | COc1cc(NC(C(=O)c2c[nH]c3cc(F)ccc23)c2ccc(F)cc2OC)cc(OCCO)c1 (centres undefined) | 4 nM

System: not listed separately
Assay: Cmax in Sprague-Dawley rat at 10 mg/kg, po measured upto 24 to 48 hrs by LC-MS/MS analysis
Assay type: ADME, organism-based
Set-up: time upper 48 hrs, dose 10 mg/kg, time lower 24 hrs, route po
Details: in vivo

Row | SMILES | Cmax
10 | COc1cc(NC(C(=O)c2c[nH]c3cc(OC)c(C)cc23)c2ccc(F)cc2OC)cc(OCCO)c1 (single isomer, unassigned; (+)) | 350 ng/mL
11 | COc1cc(NC(C(=O)c2c[nH]c3c(C)c(Cl)ccc23)c2ccc(F)cc2OC)cc(OCCO)c1 (single isomer, unassigned; (+)) | 294 ng/mL
12 | COc1cc(NC(C(=O)c2c[nH]c3cc(F)ccc23)c2ccc(F)cc2OC)cc(OCCO)c1 (centres undefined) | 135 ng/mL

System: not listed separately
Assay: Kinetic solubility of the compound in aqueous buffer at pH 2 measured after 4 hrs by UPLC/UV analysis
Assay type: physicochemical
Details: read-out: Kinetic_solubility

Row | SMILES | solubility kinetic at 4 h
13 | COc1cc(NC(C(=O)c2c[nH]c3cc(OC)c(C)cc23)c2ccc(F)cc2OC)cc(OCCO)c1 (single isomer, unassigned; (+)) | 65 µM (≈ 33.1 µg/mL)
14 | COc1cc(NC(C(=O)c2c[nH]c3c(C)c(Cl)ccc23)c2ccc(F)cc2OC)cc(OCCO)c1 (single isomer, unassigned; (+)) | 5 µM (≈ 2.56 µg/mL)
15 | COc1cc(NC(C(=O)c2c[nH]c3cc(F)ccc23)c2ccc(F)cc2OC)cc(OCCO)c1 (centres undefined) | 69 µM (≈ 33.3 µg/mL)

System: not listed separately
Assay: Oral bioavailability in Sprague-Dawley rat at 10 mg/kg measured upto 24 to 48 hrs by LC-MS/MS analysis
Assay type: ADME, organism-based
Details: in vivo, time 24-48 hrs

Row | SMILES | bioavailability
16 | COc1cc(NC(C(=O)c2c[nH]c3cc(OC)c(C)cc23)c2ccc(F)cc2OC)cc(OCCO)c1 (single isomer, unassigned; (+)) | 40%
17 | COc1cc(NC(C(=O)c2c[nH]c3c(C)c(Cl)ccc23)c2ccc(F)cc2OC)cc(OCCO)c1 (single isomer, unassigned; (+)) | 54%
18 | COc1cc(NC(C(=O)c2c[nH]c3cc(F)ccc23)c2ccc(F)cc2OC)cc(OCCO)c1 (centres undefined) | 26%

System: not listed separately
Assay: Microsomal stability in mouse liver microsomes assessed as intrinsic clearance preincubated for 5 mins followed by NADPH addition measured upto 60 mins by LC-MS/MS analysis
Assay type: ADME, Microsome
Details: time < 65 min, read-out: CLH

Row | SMILES | microsomal CLint
19 | COc1cc(NC(C(=O)c2c[nH]c3cc(OC)c(C)cc23)c2ccc(F)cc2OC)cc(OCCO)c1 (single isomer, unassigned; (+)) | < 8 µL/min/mg
20 | COc1cc(NC(C(=O)c2c[nH]c3c(C)c(Cl)ccc23)c2ccc(F)cc2OC)cc(OCCO)c1 (single isomer, unassigned; (+)) | < 8 µL/min/mg
21 | COc1cc(NC(C(=O)c2c[nH]c3cc(F)ccc23)c2ccc(F)cc2OC)cc(OCCO)c1 (centres undefined) | 26 µL/min/mg

System: not listed separately
Assay: Microsomal stability in human liver microsomes assessed as intrinsic clearance preincubated for 5 mins followed by NADPH addition measured upto 60 mins by LC-MS/MS analysis
Assay type: ADME, Microsome
Details: time < 65 min, read-out: CLH

Row | SMILES | microsomal CLint
22 | COc1cc(NC(C(=O)c2c[nH]c3cc(OC)c(C)cc23)c2ccc(F)cc2OC)cc(OCCO)c1 (single isomer, unassigned; (+)) | < 8 µL/min/mg
23 | COc1cc(NC(C(=O)c2c[nH]c3c(C)c(Cl)ccc23)c2ccc(F)cc2OC)cc(OCCO)c1 (single isomer, unassigned; (+)) | < 8 µL/min/mg
24 | COc1cc(NC(C(=O)c2c[nH]c3cc(F)ccc23)c2ccc(F)cc2OC)cc(OCCO)c1 (centres undefined) | < 8 µL/min/mg

System: not listed separately
Assay: Cytotoxicity against african green monkey Vero cells by ATPlite cell viability luminescence assay
Assay type: toxicity, cell-based
Details: chlorocebus sabaeus

Row | SMILES | CC50
25 | COc1cc(NC(C(=O)c2c[nH]c3cc(OC)c(C)cc23)c2ccc(F)cc2OC)cc(OCCO)c1 (single isomer, unassigned; (+)) | 7400 nM
26 | COc1cc(NC(C(=O)c2c[nH]c3c(C)c(Cl)ccc23)c2ccc(F)cc2OC)cc(OCCO)c1 (single isomer, unassigned; (+)) | 4100 nM
27 | COc1cc(NC(C(=O)c2c[nH]c3cc(F)ccc23)c2ccc(F)cc2OC)cc(OCCO)c1 (centres undefined) | 8400 nM

System: not listed separately
Assay: Half life in Sprague-Dawley rat at 2.5 mg/kg, iv measured by LC-MS/MS analysis
Assay type: ADME, organism-based
Details: in vivo

Row | SMILES | half-life
28 | COc1cc(NC(C(=O)c2c[nH]c3cc(OC)c(C)cc23)c2ccc(F)cc2OC)cc(OCCO)c1 (single isomer, unassigned; (+)) | 5.7 h
29 | COc1cc(NC(C(=O)c2c[nH]c3c(C)c(Cl)ccc23)c2ccc(F)cc2OC)cc(OCCO)c1 (single isomer, unassigned; (+)) | 7 h
30 | COc1cc(NC(C(=O)c2c[nH]c3cc(F)ccc23)c2ccc(F)cc2OC)cc(OCCO)c1 (centres undefined) | 3.2 h

System: not listed separately
Assay: Kinetic solubility of the compound in aqueous buffer at pH 4 measured after 4 hrs by UPLC/UV analysis
Assay type: physicochemical
Details: read-out: Kinetic_solubility

Row | SMILES | solubility kinetic at 4 h
31 | COc1cc(NC(C(=O)c2c[nH]c3cc(OC)c(C)cc23)c2ccc(F)cc2OC)cc(OCCO)c1 (single isomer, unassigned; (+)) | 5 µM (≈ 2.54 µg/mL)
32 | COc1cc(NC(C(=O)c2c[nH]c3c(C)c(Cl)ccc23)c2ccc(F)cc2OC)cc(OCCO)c1 (single isomer, unassigned; (+)) | < 0.1 µM
33 | COc1cc(NC(C(=O)c2c[nH]c3cc(F)ccc23)c2ccc(F)cc2OC)cc(OCCO)c1 (centres undefined) | 18 µM (≈ 8.68 µg/mL)

System: dengue virus type 2
Assay: Antiviral activity against DENV-2 16681 infected in african green monkey Vero cells incubated for 24 hrs measured after 3 days post infection
Assay type: functional, organism-based
Details: Dengue virus, 16681, Vero

Row | SMILES | EC50
34 | COc1cc(NC(C(=O)c2c[nH]c3cc(F)ccc23)c2ccc(F)cc2OC)cc(OCCO)c1 (centres undefined) | 9 nM

System: not listed separately
Assay: Kinetic solubility of the compound in aqueous buffer at pH 7.4 measured after 4 hrs by UPLC/UV analysis
Assay type: physicochemical
Details: read-out: Kinetic_solubility

Row | SMILES | solubility kinetic at 4 h
35 | COc1cc(NC(C(=O)c2c[nH]c3cc(OC)c(C)cc23)c2ccc(F)cc2OC)cc(OCCO)c1 (single isomer, unassigned; (+)) | 5 µM (≈ 2.54 µg/mL)
36 | COc1cc(NC(C(=O)c2c[nH]c3c(C)c(Cl)ccc23)c2ccc(F)cc2OC)cc(OCCO)c1 (single isomer, unassigned; (+)) | < 0.1 µM
37 | COc1cc(NC(C(=O)c2c[nH]c3cc(F)ccc23)c2ccc(F)cc2OC)cc(OCCO)c1 (centres undefined) | 18 µM (≈ 8.68 µg/mL)

System: dengue virus type 4
Assay: Antiviral activity against DENV-4 H241 infected in african green monkey Vero cells incubated for 24 hrs measured after 3 days post infection
Assay type: functional, organism-based
Details: Dengue virus, H241, Vero

Row | SMILES | EC50
38 | COc1cc(NC(C(=O)c2c[nH]c3cc(F)ccc23)c2ccc(F)cc2OC)cc(OCCO)c1 (centres undefined) | 870 nM

System: not listed separately
Assay: Microsomal stability in rat liver microsomes assessed as intrinsic clearance preincubated for 5 mins followed by NADPH addition measured upto 60 mins by LC-MS/MS analysis
Assay type: ADME, Microsome
Details: time < 65 min, read-out: CLH

Row | SMILES | microsomal CLint
39 | COc1cc(NC(C(=O)c2c[nH]c3cc(OC)c(C)cc23)c2ccc(F)cc2OC)cc(OCCO)c1 (single isomer, unassigned; (+)) | < 8 µL/min/mg
40 | COc1cc(NC(C(=O)c2c[nH]c3c(C)c(Cl)ccc23)c2ccc(F)cc2OC)cc(OCCO)c1 (single isomer, unassigned; (+)) | < 8 µL/min/mg
41 | COc1cc(NC(C(=O)c2c[nH]c3cc(F)ccc23)c2ccc(F)cc2OC)cc(OCCO)c1 (centres undefined) | 30 µL/min/mg

System: not listed separately
Assay: Clearance in Sprague-Dawley rat at 2.5 mg/kg, iv measured upto 24 hrs by LC-MS/MS analysis
Assay type: ADME, organism-based
Details: in vivo

Row | SMILES | clearance
42 | COc1cc(NC(C(=O)c2c[nH]c3cc(OC)c(C)cc23)c2ccc(F)cc2OC)cc(OCCO)c1 (single isomer, unassigned; (+)) | 13.6 mL/min/kg
43 | COc1cc(NC(C(=O)c2c[nH]c3c(C)c(Cl)ccc23)c2ccc(F)cc2OC)cc(OCCO)c1 (single isomer, unassigned; (+)) | 10.7 mL/min/kg
44 | COc1cc(NC(C(=O)c2c[nH]c3cc(F)ccc23)c2ccc(F)cc2OC)cc(OCCO)c1 (centres undefined) | 39.2 mL/min/kg
